Entries after “also recorded” stand apart in the source; their conditions may differ.
What was measured:
Type in all cases: cell-based, human
U20S cells = assay: Strigolactone analog induced gene expression changes; details: 5 ppm
Description: To further elucidate the transcriptional program by which strigolactone analogs may affect growth and survival of cancer cells, U20S cells were treated with ST-362 or MEB-55 (5 ppm) for either 6 or 24 hours to permit early and late gene expression changes to be distinguished. U20S cells were selected based on their enhanced sensitivity to strigolactone treatment (see FIG. 7). […] Up-regulation of cytokines (CCL3L3, GDF15) and growth factors (PGF), and down-regulation of TGFBR11 was also noted. Apoptosis regulating genes were also identified, including DDIT3, BIRC3 and BAG3. DDIT3 encodes a member of the CCAAT/enhancer-binding protein (C/EBP) family of transcription factors and functions as a dominant-negative inhibitor by forming heterodimers with other C/EBP members and preventing their DNA binding activity. DDIT3 is induced by stress, including DNA damage and DDIT3 over-expression can induce cell cycle arrest. After 6 hours, MEB-55 treatment was associated with increased expression of p21cip (CDKN1A), Cyclin F (CCNF), Cyclin A2 (CCNA2) and decreased expression of CDK6, whereas ST-362 induced only a modest down-regulation of Cyclin B1 (CCNB1). Therefore, changes in the expression profile of cell cycle regulators, was not a global hallmark of strigolactone exposure. The only exception was Cyclin G2 (CCNG2) whose expression was elevated in both ST-362 and MEB-55 treatment groups. Cyclin G2 is an unconventional cyclin homolog which is linked to growth inhibition and whose expression is induced by DNA damaging chemotherapeutics.

MDA-MB-231 = assay: XTT viability after timed exposure and strigolactone removal; details: 5 and 10 ppm, XTT at 24 hours
Description: As further detailed herein below in the Experimental section, strigolactones and strigolactone analogs inhibit growth through a G2-phase arrest and cause apoptosis at higher concentrations wherein the GR-24 treatment causes an increase in the percentage of MCF-7 and MDA-MB-231 cells in G2-phase. Cells were treated with strigolactone analogs to determine whether or not they alter cell cycle progression in the same way. Dose dependant increases in the percentage of cells in G2 phase were observed. […] After a total of 24 hours, an XTT assay was carried out.

HCT116 cells = assay: FACS analysis of phospho-Ser10 Histone-H3; details: 2.7% in vehicle controls
Description: Adherent cells were trypsinyzed, washed twice with PBS and filtered through a […] cell sieve. DNA content was assessed by flow cytometry. Cells were seeded at densities of 1.5×10^5 cells (MDA-MB-231, MDA-MB-436), or 4×10^5 cells (MCF-7 and MCF10A), or 2×10^5 cells (SW480, HT-29), or 5×10^5 cells (HCT116), per well in DMEM with 10% FBS in 6-well plate culture dishes. […] After 48 hours, cells were washed twice with PBS (pH 7.4), centrifuged at 360 g for 10 minutes at 4° C., and fixed in chilled ethanol (70%; v/v in PBS) with gentle vortex mixing. To determine their DNA contents, the cells were stained with 40 μg/ml propidium iodide (hereinafter PI) and analyzed using a FACSCalibur flow cytometer and CellQuest analysis software (Becton Dickinson, San Jose, Calif.). Where phosphoHistone-H3 staining was carried out, cells were incubated with polyclonal antibody against phosphoHistone H3 and then with secondary Goat anti-rabbit IgG-conjugated to FITC prior to PI staining.
Chromosome condensation at mitosis is accompanied by phosphorylation of histone H3. Accordingly, in order to determine if cells were arresting at G2 or M phase, HCT116 cells were analyzed for pS10 Histone H3 following strigolactone analogs exposure. […] To further quantify whether the growth inhibition observed in-vitro following strigolactone treatment was due in part to apoptosis, HCT116 cells were dual stained with Annexin V and PI (Prodidium Iodide). Annexin V staining indicate the inversion of the inner leaflet of the plasma membrane an early event of apoptosis. Late apoptosis is characterized by loss of membrane integrity and cells become permeable to PI. […] Cells were incubated for 48 hours and then co-stained with annexin-V and PI (FIG. 12F). Following treatment with 10 ppm and 15 ppm MEB-55, the percentage of late apoptotic cell increased from 3.6% to 62% and 85% respectively (FIG. 12F, lower panel). […] Dual Annexin V/PI staining analysis was also carried out on two other colon cancer cell lines, (SW480, HT29) following strigolactone treatment. Increased apoptosis was also observed in these lines following MEB-55 treatment in a dose dependent manner (FIG. 12D).

## CC1=CC(O/C=C2\Cc3c(n(C)c4cc(-c5cccs5)ccc34)C2=O)OC1=O (racemic) [MEB-55, (±) 2E-4-methyl-2-(4-methyl-5-oxo-2,5-dihydrofuran-2-yloxymethylene)-6-thiophen-2-yl-1,4-dihydro-2H-cyclopenta[b]indol-3-one]
U20S cells; 6 hours
  Fold-Change ABCB1: 8.1 fold
  Fold-Change AHSA1: 2.6 fold
  Fold-Change ALDH1B1: −3.1 fold
  Fold-Change ATF3: 4.0 fold
  Fold-Change BAG3: 7.7 fold
  Fold-Change BIRC3: −3.2 fold
  Fold-Change CCNG2: 3.1 fold
  Fold-Change CLDN12: 2.5 fold
  Fold-Change CYP24A1: −3.6 fold
  Fold-Change DDIT3: 14.1 fold
  Fold-Change FGF2: 2.1 fold
  Fold-Change FOXD1: −2.7 fold
  Fold-Change FOXO4: 2.2 fold
  Fold-Change GDF15: 19.0 fold
  Fold-Change GEM: 4.9 fold
  Fold-Change HSPA1A: 12.4 fold
  Fold-Change HSPA1B: 12.4 fold
  Fold-Change HSPA1L: 3.9 fold
  Fold-Change HSPA6: 158.7 fold
  Fold-Change HSPA7: 55.7 fold
  Fold-Change HSPB8: 3.6 fold
  Fold-Change PGF: 7.0 fold
  Fold-Change PPP1R15A: 3.7 fold
  Fold-Change PTGS2: 6.9 fold
  Fold-Change SLC3A2: 3.4 fold
  Fold-Change SLC7A11: 2.1 fold
  Fold-Change SLC44A2: 2.1 fold
  Fold-Change TGFBR2: −2.3 fold
U20S cells; 24 hours
  Fold-Change ABCA13: −2.6 fold
  Fold-Change AMPH: −2.7 fold
  Fold-Change BIRC3: 2.4 fold
  Fold-Change CCL20: 11.9 fold
  Fold-Change CTGF: 2.1 fold
  Fold-Change CYR61: 2.2 fold
  Fold-Change DHRS2: −2.3 fold
  Fold-Change DUSP5: 3.8 fold
  Fold-Change E2F2: −2.2 fold
  Fold-Change EGR1: 2.7 fold
  Fold-Change ESM1: 21.2 fold
  Fold-Change GDF15: 2.2 fold
  Fold-Change HSPA5: −2.1 fold
  Fold-Change ITGA2: 3.6 fold
  Fold-Change KIF20A: −2.4 fold
  Fold-Change LAMA1: 2.1 fold
  Fold-Change RN7SK: 15.3 fold
  Fold-Change SCG5: 4.9 fold
  Fold-Change SLC7A11: 4.1 fold
  Fold-Change SNORD3A: 4.2 fold
  Fold-Change SNORD3C: 4.8 fold
  Fold-Change SNORD3D: 4.8 fold
  Fold-Change SPP1: 6.6 fold
  Fold-Change TGFBI: −2.0 fold
MDA-MB-231; 2 hours exposure
  Cell viability: No significant changes; also recorded: No changes in cell viability
MDA-MB-231; 4 hours exposure, p<0.01
  Cell viability: significant decrease in viability
HCT116 cells; 5 ppm
  Percentage of cells staining positive for pHistone H3: 1.45%
HCT116 cells; 7.5 ppm
  Percentage of cells staining positive for pHistone H3: 0.9%

## CC1=CC(O/C=C2/C(=O)c3c(c4cc(-c5cccs5)ccc4n3C)C2C)OC1=O (centres unmarked) [ST-357, (2E)-1,4-dimethyl-2-((4-methyl-5-oxo-2,5-dihydrofuran-2-yloxy)methylene)-7-(thiophen-2-yl)-1,2-dihydrocyclopenta[b]indol-3(4H)-one]
HCT116 cells; 5 ppm
  Percentage of cells staining positive for pHistone H3: 0.7%
HCT116 cells; 7.5 ppm
  Percentage of cells staining positive for pHistone H3: 0.3%

## CC1=CC(O/C=C2/C(=O)c3c(c4cc(-c5scc6c5OCCO6)ccc4n3C)C2C)OC1=O (centres unmarked) [ST-362, (2E)-2-[(2,5-dihydro-4-methyl-5-oxofuran-2-yloxy)methylene]-1,2-dihydro-7-(2,3-dihydrothieno[3,4-b][1,4]dioxin-7-yl)-1,4-dimethyl-cyclopenta[b]indole-3-(4H)-one]
U20S cells; 6 hours
  Fold-Change ABCB1: 3.6 fold
  Fold-Change AHSA1: 2.1 fold
  Fold-Change ALDH1B1: −2.1 fold
  Fold-Change ATF3: 2.2 fold
  Fold-Change BAG3: 4.6 fold
  Fold-Change BIRC3: −2.4 fold
  Fold-Change CCL3L3: 3.7 fold
  Fold-Change CCNB1: −2.1 fold
  Fold-Change CCNG2: 3.6 fold
  Fold-Change CLDN12: 2.3 fold
  Fold-Change CYP24A1: −2.6 fold
  Fold-Change DDIT3: 6.2 fold
  Fold-Change FOXD1: −2.4 fold
  Fold-Change FOXO4: 2.5 fold
  Fold-Change GDF15: 7.6 fold
  Fold-Change GEM: 2.4 fold
  Fold-Change HSPA1A: 7.3 fold
  Fold-Change HSPA1B: 9.2 fold
  Fold-Change HSPA1L: 2.7 fold
  Fold-Change HSPA6: 79.8 fold
  Fold-Change HSPA7: 23.3 fold
  Fold-Change HSPB8: 2.7 fold
  Fold-Change PGF: 6.2 fold
  Fold-Change PPP1R15A: 2.7 fold
  Fold-Change PTGS2: 3.4 fold
  Fold-Change SLC3A2: 3.6 fold
  Fold-Change SLC7A11: 2.2 fold
  Fold-Change SLC31A2: 2.3 fold
  Fold-Change SLC44A2: 2.5 fold
  Fold-Change TGFBR2: −2.0 fold
U20S cells; 24 hours
  Fold-Change ABCA13: −2.8 fold
  Fold-Change AMPH: −3.5 fold
  Fold-Change BIRC3: 2.6 fold
  Fold-Change CCL20: 6.6 fold
  Fold-Change CCNB1: −2.2 fold
  Fold-Change CCNG2: 2.7 fold
  Fold-Change CTGF: 2.4 fold
  Fold-Change CYR61: 3.6 fold
  Fold-Change DHRS2: −2.5 fold
  Fold-Change DUSP5: 3.9 fold
  Fold-Change E2F2: −3.3 fold
  Fold-Change EGR1: 2.2 fold
  Fold-Change ESM1: 6.9 fold
  Fold-Change GDF15: 4.2 fold
  Fold-Change HSPA5: −2.8 fold
  Fold-Change ITGA2: 3.4 fold
  Fold-Change KIF20A: −4.7 fold
  Fold-Change LAMA1: 3.0 fold
  Fold-Change RN7SK: 16.8 fold
  Fold-Change SCG5: 3.0 fold
  Fold-Change SLC7A11: 3.6 fold
  Fold-Change SNORD3A: 4.1 fold
  Fold-Change SNORD3C: 4.0 fold
  Fold-Change SNORD3D: 4.8 fold
  Fold-Change SPP1: 3.9 fold
  Fold-Change TGFBI: −3.4 fold
MDA-MB-231; 2 hours exposure
  Cell viability: No significant changes; also recorded: No changes in cell viability
MDA-MB-231; 4 hours exposure, p<0.01
  Cell viability: significant decrease in viability

From US10208007B2, “Use of strigolactones and strigolactone analogs for treating proliferative conditions” (The State of Israel, Ministry of Agriculture & Rural …, priority 2011, dated 2019)
